According to patent US5304474A, “Hydrophobic peptide esters and amides” (Board of Regents, The University of Texas System, priority 1991, dated 1994):

Experiments:
[1] = Activity and appearance of mice post-injection; format: in vivo, C3H/HeJ mice; details: 15-30 minutes post-injection, about 1×10^-3 moles per kg tail-vein
Method: Leu-Leu-OMe or Leu-Phe-OMe were suspended in PBS, pH 7.4. Then individual C3H/HeJ mice (25 gram size) were administered by tail-vein injection either 2.5×10^-5 moles (6.5 mg) of Leu-Leu-OMe, 2.5×10^-5 moles (7.1 mg) Leu-Phe-OMe, or an equal volume of the PBS diluent, this dose being about 1×10^-3 moles per kg. […] Subsequent to this quiescent period no difference in activity or appearance in the mice was noted. Two hours post-injection, the mice were sacrificed and their spleen cells were assayed for NK function in a standard 4 hour assay against YAC-1 tumor targets. In all mice, total cell recovery ranged […] spleen cells per animal. […] Thus, Leu-Leu-OMe or Leu-Phe-OMe caused a greater than 75% decrease in splenic lytic activity against YAC-1 tumor targets.

B Cells = assay: Leu-Leu-OMe sensitivity of cell type; format: cell-based, human
[2] = tested on: precursors of activated NK (AcNK); assay: Elimination of activated NK-like cells (6 day MLC, lysis of K562); format: cell-based, human
Method: Experiments were also designed to assess the relative sensitivity of NK and CTL to Leu-Leu-OMe. In the studies detailed in FIGS. 8 and 9, cytotoxicity assays were performed over a broad range of E:T ratios and units of lytic activity arising from equal numbers of responding lymphocytes were calculated and compared. […] Only after exposure to greater than 250 micromolar Leu-Leu-OMe were all CTL precursors eliminated.
Non-adherent lymphocytes (2.5×10^6 /ml) were incubated with the indicated concentrations of Leu-Leu-OMe for 15 minutes. Cells were then washed and either placed in mixed lymphocyte culture or assayed for specific lysis of K562 cells (NK). After 6 day MLC, cells were assayed for specific lysis of allogeneic stimulator lymphoblasts (CTL) or K562 (AcNK). Data are expressed as percent of control lytic units (mean+SEM, n=6).
Both values were also higher than the mean concentration of Leu-Leu-OMe required to diminish spontaneous NK lytic activity by 75% (35 micromolar±4 micromolar). […] Thus, only after MLC activation did CTL display a sensitivity to Leu-Leu-OMe toxicity that was equal to that of NK cells.

[3] = tested on: epidermal carcinoma line, HEp-2; assay: 51Cr release toxicity assay
Method: In some experiments, toxicity of Leu-Leu-OMe for a variety of cell populations was assessed by ^51 Cr release In assays where cells obtained from suspension culture were to be used, cells were labeled with Na2^51 CrO4 (ICN, Plainview, N.Y.) for 60-90 minutes at 37° C. and then washed three times. Cells were then suspended in PBS (2.5×10^6 /ml) and incubated in microtiter plates, 50 microL/well with indicated concentrations of Leu-Leu-OMe for 15 minutes at room temperature. […] Following ^51 Cr labeling, wells were thoroughly washed and varying concentrations of Leu-Leu-OMe added in 50 microL PBS and the plates incubated for 15 minutes at room temperature.
Following such initial serum-free incubations, 200 microL/well of medium RPMI containing 10% FBS were added and the plates incubated for another 4 hours prior to removal of 100 microliters of supernatant. Radioactivity in the supernatant was measured in an auto-gamma scintillation spectrometer (Packard Instrument Co., Downers Grove, Ill.). The percent specific release was calculated from the formula: [formula] in which maximal release refers to cpm obtained in wells containing 50% lysing agent (American Scientific Products, McGraw Park, Ill.) and spontaneous release refers to cpm released by cells incubated in control medium in the absence of Leu-Leu-OMe or the lysing agent.

[4] = target: dipeptidyl peptidase I (DPPI) (Bos taurus, UniProt Q3ZCJ8); assay: Dipeptidyl peptidase I catalyzed lysis of human RBC; format: cell-based, bovine; details: FIG. 12, FIG. 13
Method: The following experiments were carried out to determine whether DPPI could generate a lytic product from Leu-Leu-OMe. In the experiment detailed in FIG. 12, ^51 Cr-labeled human erythrocytes (RBC) were incubated with varying concentrations of Leu-Leu-OMe alone or in the presence of purified bovine DPPI.
In the experiments detailed in FIG. 13, ^51 Cr-labeled RBC's were exposed to various dipeptide esters or amides in the presence or absence of purified DPPI. […] The first observation is probably related to the inability of this enzyme to catalyze transpeptidation of peptide esters containing D-stereoisomers of amino acids. The latter observations are likely to be related to the fact that polymers of Ser-Leu or Leu-Tyr are not hydrophobic and therefore unlikely to enter and disrupt cell membranes.

hemopoietic stem cells = assay: Stem cell function: splenic 125I-UdR uptake 5 d after transfer into irradiated syngeneic recipients; format: in vivo, mice; details: 250 micro-M
Method: Bone marrow cells or marrow and spleen cell mixtures were incubated in PBS with or without 250 micro-M Leu-Leu-OMe as above and then infused into 950 cGy irradiated syngeneic recipients. 5 d later, splenic 5-iodo-2'-deoxyuridine-^125 I (^125 I-UdR) uptake was measured as previously described (15).
To assay the effects of Leu-Leu-OMe on hemopoietic stem cells, we incubated marrow or mixtures of marrow and spleen cells in PBS with or without Leu-Leu-OMe and measured splenic ^125 I-UdR uptake 5 d after transplantation into irradiated syngeneic recipients (18). […] Since human marrow obtained for use in transplantation has variable amounts of peripheral blood contamination, we also studied the stem cell function of a mixture of murine spleen and marrow incubated with Leu-Leu-OMe. […] Histological studies were conducted of spleens from irradiated mice. B6 mice were irradiated with 950 cGy and given no marrow (irradiation control), or given syngeneic bone marrow cells that had been incubated in PBS with or without 250 micro-M Leu-Leu-OMe. 5 d later spleens were examined histologically. Irradiation control spleens were sparsely populated, with no hemopoietic elements. Recipients of marrow treated with 250 micro-M Leu-Leu-OMe had the vast majority of their splenic red pulp packed with erythroblasts, but also had numerous peritrabecular areas containing megakaryocytes and granulocytic elements.

[5] = tested on: CD16(+), CD4(+), CD8(+) lymphocytes; assay: Lymphocyte subsets of PBL stained with alpha-CD16, alpha-CD4, alpha-CD8; format: cell-based, human
Excerpt: Thus, as previously reported (see prior Examples and J. Immunol. 1986; 136:1038-1048), exposure of human PBL to 250 micro-M Leu-Leu-OMe results in loss of all CD16(+) NK cells, and the majority of CD8(+) T cells and thereby results in reciprocal enrichment of the CD4(+) T cell subset which is largely Leu-Leu-OMe resistant (see Table 13).

[6] = tested on: peripheral blood lymphocytes (PBL); assay: [3H]Leu-Leu-OMe uptake/binding by lymphocytes; format: in vitro ADME, human
Method: Human peripheral blood lymphocytes (PBL) were incubated in the presence of [^3 H]labeled Leu-Leu-OMe at 22° C. for varying lengths of time. The incubation mixture was then centrifuged through silicone oil to separate the cells from any unbound or non-internalized [^3 HLeu-Leu-OMe. […] At 37° C., levels of [^3 H]Leu-Leu-OMe accumulation by PBL were increased above those seen at 22° C. (see Table 4).

[7] = tested on: natural killer cells (NK); assay: NK function: lysis of K562 target cells (51Cr release) after preincubation of lymphocytes with compound
Method: PBM were separated from heparinized venous blood of healthy donors by centrifugation over sodium diatrizoate-Ficoll gradients (Isolymph, Gallard-Schlesinger Chemical Mfg. Corp., Carle Place, N.Y.).
All cell exposures to the amino acids, dipeptides or their methyl esters were carried out by suspending cells in Dulbecco's phosphate buffered saline (PBS) and incubating them at room temperature with the reagent at the indicated concentration and time interval.
Percent of control cytotoxicity was calculated using the formula: [formula]

[8] = 100 micromolar, 15 minutes (FIG. 8)

Sequence of dipeptidyl peptidase I (DPPI) (Q3ZCJ8 231-394 limits assumed): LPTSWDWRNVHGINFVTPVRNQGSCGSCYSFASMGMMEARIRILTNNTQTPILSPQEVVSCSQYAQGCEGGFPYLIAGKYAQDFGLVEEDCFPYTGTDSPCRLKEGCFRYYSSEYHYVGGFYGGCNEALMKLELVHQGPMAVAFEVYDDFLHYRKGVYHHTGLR
Sequence of dipeptidyl peptidase I (DPPI) (Q3ZCJ8 25-134 limits assumed): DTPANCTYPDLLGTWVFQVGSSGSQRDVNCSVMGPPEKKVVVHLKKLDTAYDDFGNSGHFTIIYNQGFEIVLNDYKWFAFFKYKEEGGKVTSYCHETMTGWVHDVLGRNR
Sequence of dipeptidyl peptidase I (DPPI) (Q3ZCJ8 395-463 limits assumed): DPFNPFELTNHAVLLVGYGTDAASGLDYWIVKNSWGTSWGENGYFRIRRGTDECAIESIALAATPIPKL

COC(=O)[C@H](CC(C)C)NC(=O)[C@@H](N)CC(C)C [Leu-Leu-OMe, L-leucyl-L-leucine methyl ester]
activity and appearance post-injection [1]: exhibited decreased activity and an apparent increase in sleep | Leu--Leu--OMe Sensitivity (LD50) (B Cells): > 500 micro-M | precursors of activated NK, lytic units [2, 8]: totally eliminated | mean concentration required to diminish lytic activity by 75% ([2]; elimination of precursors of activated NK): 50 ± 5 µM | 51Cr release [3]: no significant Leu-Leu-OMe induced ^51 Cr release | subsequent proliferative capacity ([3]; 500 micromolar): had no discernible effect on subsequent proliferative capacity | RBC lysis in the presence of purified DPPI, in words [4]: RBC lysis occurs | effect on stem cell function, in words (hemopoietic stem cells): had no deleterious effect on this measure of stem cell function | Cells stained with alpha-CD16 ([5]; single agent (Leu-Leu-OMe 250 micro-M or Gly-Phe-CHN2 10^-6 M), Nil 8.1): < 0.1 | Cells stained with alpha-CD8 ([5]; single agent, Nil 18.8): 7.0 | Cells stained with alpha-CD4 ([5]; single agent, Nil 60.3): 87.2 | Km ([6]; 15 minute incubation at 22° C.): ~100 µM | Vmax of uptake ([6]; 15 minute incubation at 22° C.): approximately 10^-10 moles/minute/10^6 cells | external concentration of near maximal uptake ([6]; 15 minute incubation at 22° C. (FIG. 11)): 250-500 micro-M | NK Function % Specific Lysis K562 ([7]; 12.50 micro-M, Nil 66 (Table 14)): 60% | NK Function % Specific Lysis K562 ([7]; 25.00 micro-M, Nil 66 (Table 14)): 12% | NK Function % Specific Lysis K562 ([7]; 50 micro-M, Nil 40.8 (Table 16)): 1.1% | NK Function % Specific Lysis K562 ([7]; 50.00 micro-M, Nil 66 (Table 14)): 2% | NK Function % Specific Lysis K562 ([7]; 100.00 micro-M, Nil 66 (Table 14)): < 1% | spontaneous NK lytic units [7, 8]: totally eliminated | concentration resulting in loss of K562 target binding and complete depletion of Leu 11b stained cells ([7]; MP-depleted lymphocytes): greater than 50 micromolar | concentration above which no NK function could be detected ([7]; MP-depleted lymphocytes, 15 minutes room temperature (FIG. 4)): greater than 50 micromolar | Leu--Leu--OMe Sensitivity (LD50) ([7]; NK Cells): 35 micro-M | concentration causing maximal depletion of NK ([7]; antibody staining (FIG. 6) and functional studies (FIG. 4)): 100 µM | NK Toxicity (LD50) ([7]; concentration which results in 50% loss of human NK function, PBL 15 minutes at 22° C.): 35 micro-M | concentration in excess of which NK toxic effects are seen ([7]; lymphocytes exposed 15 minutes at room temperature): > 12.5 micro-M | mean concentration required to diminish lytic activity by 75% ([7]; spontaneous NK): 35 µM
